{"source": "patent US7534769B2", "about": "“Compositions and methods for enhancing delivery of therapeutic agents to cells” (Canji, Inc., priority 1996, dated 2009)", "key": {"[1]": {"test": "Solubility and dissolution behaviour", "assay_type": "physicochemical"}, "[2]": {"system": "bladder epithelium", "test": "rAd-βgal gene transfer to bladder epithelium in detergent formulations, Xgal staining score and gross pathology", "settings": "detergents at their critical micellization concentration", "procedure": "rAd-βgal was formulated in different detergents at their critical micellization concentration to evaluate efficiency of gene transfer to the bladder epithelium. Female rats (about 200 g b/w, Harlan Sprague Dawley) were anesthetized with isoflurane and received a single intravesical administration of rAd-βgal (1×10^11 PN/ml) in different detergent formulations (see Table I). Before instillation, bladders were flushed with PBS and then emptied. rAd-βgal was then instilled in a volume of 0.5 ml. The instilled solution was retained in the bladder for 45 minutes. The bladders were then flushed with PBS, and the animals were permitted to recover from the procedure. 48 hours after administration, the rats were sacrificed, the bladders harvested, and fixed in formalin. After fixation, the bladders were opened longitudinally so that the urothelium was exposed to the chromogen (Xgal), that is converted to a blue color, if reporter gene (β-galactosidase) expression is present. The luminal epithelial surface of the whole bladder was photographed an blue staining scored: + (minimal staining), ++ (moderate staining), +++ intense staining covering the whole bladder epithelial surface.\nBriefly, in anaesthetized female rats rAd-βgal (1×10^11 PN/ml) was administered into the bladder via an intravesical catheter. rAd-βgal was formulated in different concentrations of Big CHAP (CALBIOCHEM®). A volume of 0.5 ml was injected and remained instilled in the bladder for 45 minutes. The animals were sacrificed 48 hours later, the bladder fixed in 4% formalin/glutaraldehyde, opened longitudinally, and the β-galactosidase enzyme activity measured using Xgal substrate. The intensity of blue staining correlates with the βgal-transgene expression.\nEffects of higher recombinant adenovirus concentrations were also tested. Briefly, in anaesthetized female rats different concentrations of rAd-βgal, formulated in 7 mM Big CHAP (CALBIOCHEM®) were administered into the bladder via an intravesical catheter. The animals were sacrificed 48 hours later, the bladder fixed in 4% formalin/glutaraldehyde, opened longitudinally, and Xgal stained."}, "[3]": {"system": "bladder epithelium", "test": "Effect of Big CHAP sources, purified Big CHAP and impurities on rAd-βgal gene transfer to bladder epithelium", "assay_type": "in vivo, rat", "settings": "for gene transfer and expression: column chromatography purified BC, 30 mg/ml; for rAd mediated gene transfer and expression: Big CHAP at 6 mg/ml; for epithelial gene expression: increasing concentrations of BC (Sigma), 20 mg/ml; for cystitis / bladder irritation: Impurity I", "procedure": "Alternate commercial sources of Big CHAP (BC) were tested for the ability to enhance rAd (recombinant adenovirus) mediated gene transfer and expression, essentially according to the method described above in Example 8.\nThe results are depicted in FIG. 17.\nrAd-βgal was formulated in 30 mg/ml of the column chromatography purified material of both BCs and gene transfer to the bladder epithelium tested as described above.\nThree impurities of BC (CALBIOCHEM®) were detected by TLC (FIG. 15) and isolated by column chromatography for gene transfer studies. Impurity I and a mixture of impurity II and impurity III were diluted in VPBS (0.6 mg/ml or 6 mg/ml) to test their efficiency in improving rAd mediated gene transfer to the bladder epithelium. […] Positive control formulation (BC, CALBIOCHEM®, upper panel, left), and the negative control formulations (BC—CALBIOCHEM®, column chromatography purified and BC—Sigma) were used at a concentration of 6 mg/ml (upper panel, right).\nIn this experiment, 10 mg/ml of BC (Sigma, FIG. 20 upper middle panel) was reconstituted with Impurity III (upper right panel), impurity II (lower left panel), or synthesized analog of impurity III (lower right panel). rAd-βgal, 1×10^11 PN/ml, was prepared in the spiked formulations and administered intravesically as described above.\nCalbiochem Big CHAP was fractionated by column chromatography to obtain essentially pure impurities “1”, “2”, and “3” for biological testing as well as structural analysis."}, "[4]": {"system": "bladder", "test": "Gene transfer activity of water-soluble Syn3 analogs in vivo, whole organ Xgal staining", "design": "species or system rat", "settings": "for gene transfer activity compared to controls: 1 mg/ml", "procedure": "A concentration of 1 mg/ml was chosen for initial testing of both compounds.\nThe solution of A-TMA was prepared by dissoluting 10 mg of A-TMA into 10 ml Dulbecco's PBS. Glycerol was added to provide a final concentration of 10 mg/ml. All solutions were sterile filtered prior to use (0.2 μm Acrodisc syring filter). The virus (BGCG 70AAB) was diluted 1:10 into either this A-TMA solution, or into Dulbecco's PBS-glycerol prior to administration.\nTen mg of A-HCl was dissoluted into this buffer and sterile filtered prior to use (0.2 μm Acrodisc suring filter). The virus (BGCG 70AAB) was diluted 1:10 into this solution prior to administration. For comparison, the virus diluted into this buffer without A-HCl was also tested.\nFemale HSD rats were anesthetized using isofluorane. The rats were transuretherally catheterized into the bladder using PE50 tubing lubricated with K-Y jelly. A tie-off was installed on the external urethra to prevent back leakage. Urine, if any, was removed and the bladder was flushed with 0.5 ml PBS and emptied. rAd was diluted to the desired concentration (1:10) and instilled for 45 minutes. The dosing material was removed, noting the return volume. The bladder was flushed with 0.5 ml PBS and emptied. The tie-off and catheter were removed, and the animals were allowed to recover in cages.\nAfter 48 hours, the animals were sacrificed and their bladders inflation fixed with 0.5 ml fixative for 1 hour. The bladders were then rinsed overnight and whole organ Xgal staining was conducted."}}, "note": "Entries after “also recorded” stand apart in the source; their conditions may differ.", "data": [{"compound": "C[C@H](CCC(=O)N(CCCNC(=O)[C@H](O)[C@@H](O)[C@H](O)[C@H](O)CO)CCCNC(=O)[C@H](O)[C@@H](O)[C@H](O)[C@H](O)CO)[C@H]1CC[C@H]2[C@@H]3[C@H](O)C[C@@H]4C[C@H](O)CC[C@]4(C)[C@H]3C[C@H](O)[C@]12C", "note": "[Big CHAP, N,N,bis-(3-D-gluconamidopropyl)-cholamide, reference compound]", "values": [{"measurement": "solubility in water / aqueous solutions (in words)", "setting": "[1]", "value": "highly water soluble"}]}, {"compound": "C[C@H](CCC(=O)NCCC[N+](C)(C)CCCS(=O)(=O)[O-])[C@H]1CC[C@H]2[C@@H]3[C@H](O)C[C@@H]4C[C@H](O)CC[C@]4(C)[C@H]3C[C@H](O)[C@]12C.O", "note": "[Chaps, 3-[(3-Cholamidopropyl)dimethylammoniol]-1-propanesulfonate hydrate, reference compound]", "values": [{"measurement": "gene transfer to the bladder epithelium (Table I)", "setting": "[2]", "value": "enhanced gene transfer dramatically"}]}, {"compound": "CCCCCCCCCCCCCC[N+](C)(C)CCCS(=O)(=O)[O-]", "note": "[Zwittergent ® 3-14, reference compound]", "values": [{"measurement": "gene transfer to the bladder epithelium (Table I)", "setting": "[2]", "value": "enhanced gene transfer dramatically"}]}, {"compound": "C[C@H](CCC(=O)N(CCCNC(=O)[C@H](O)[C@@H](O)[C@H](O)[C@H](O)CO)CCCNC(=O)[C@H](O)[C@@H](O)[C@H](O)[C@H](O)CO)[C@H]1CC[C@H]2[C@@H]3[C@H](O)C[C@@H]4C[C@H](O)CC[C@]4(C)[C@H]3C[C@H](O)[C@]12C", "note": "[purified Big CHAP (Sigma)]", "values": [{"measurement": "gene transfer and expression", "setting": "[3]", "value": "reduced ability to enhance gene transfer"}, {"measurement": "gene transfer and expression", "setting": "[3]; listed as purified Sigma BC", "value": "without any effect"}]}, {"compound": "C[C@H](CCC(=O)N(CCCNC(=O)[C@H](O)[C@@H](O)[C@H](O)[C@H](O)CO)CCCNC(=O)[C@H](O)[C@@H](O)[C@H](O)[C@H](O)CO)[C@H]1CC[C@H]2[C@@H]3[C@H](O)C[C@@H]4C[C@H](O)CC[C@]4(C)[C@H]3C[C@H](O)[C@]12C", "note": "[Big CHAP (Sigma), N,N,bis-(3-D-gluconamidopropyl)-cholamide]", "values": [{"measurement": "gene transfer", "setting": "[3]; 26 mg/ml", "value": "found to enhance gene transfer"}, {"measurement": "rAd mediated gene transfer and expression", "setting": "[3]; listed as BC—Sigma", "value": "did not markedly improve rAd mediated gene transfer"}, {"measurement": "rAd mediated gene transfer and expression", "setting": "[3]; listed as Sigma Big CHAP", "value": "does not enhance gene transfer"}, {"measurement": "epithelial gene expression", "setting": "[3]", "value": "enhanced gene transfer at higher concentrations"}, {"measurement": "epithelial gene expression", "setting": "[3]; listed as Sigma BC", "value": "improved epithelial gene expression"}]}, {"compound": "COC(=O)CC[C@@H](C)[C@H]1CC[C@H]2[C@@H]3[C@H](O)C[C@@H]4C[C@H](O)CC[C@]4(C)[C@H]3C[C@H](O)[C@]12C", "note": "[Impurity I]", "values": [{"measurement": "cystitis / bladder irritation", "setting": "[3]", "value": "caused cystitis"}, {"measurement": "cystitis / bladder irritation", "setting": "[3]; listed as Impurity 1", "value": "bladder irritation"}, {"measurement": "β-galactosidase gene expression in the bladder epithelium", "setting": "[3]; impurities diluted in VPBS, 0.6 mg/ml or 6 mg/ml", "value": "did not lead to increased β-galactosidase gene expression"}]}, {"compound": "C[C@H](CCC(=O)NCCS(=O)(=O)O)[C@H]1CC[C@H]2[C@@H]3CC[C@@H]4C[C@H](O)CC[C@]4(C)[C@H]3C[C@H](O)[C@]12C", "note": "[Taurodeoxycholate, reference compound]", "values": [{"measurement": "gene transfer to the bladder epithelium (Table I)", "setting": "[2]", "value": "enhanced gene transfer dramatically"}]}, {"compound": "C[C@H](CCC(=O)NCCCN(CCCN)C(=O)CC[C@@H](C)[C@H]1CC[C@H]2[C@@H]3[C@H](O)C[C@@H]4C[C@H](O)CC[C@]4(C)[C@H]3C[C@H](O)[C@]12C)[C@H]1CC[C@H]2[C@@H]3[C@H](O)C[C@@H]4C[C@H](O)CC[C@]4(C)[C@H]3C[C@H](O)[C@]12C.Cl", "note": "[A-HCl]", "values": [{"measurement": "gene transfer activity compared to controls", "setting": "[4]", "value": "significantly above those levels obtained by controls"}, {"measurement": "solubility in saline", "setting": "[1]", "value": "not completely soluble in saline"}, {"measurement": "pH of solution", "setting": "[1]; dissolution into dH2O", "value": 4.7}]}, {"compound": "C[C@H](CCC(=O)NCCCN(CCC[N+](C)(C)C)C(=O)CC[C@@H](C)[C@H]1CC[C@H]2[C@@H]3[C@H](O)C[C@@H]4C[C@H](O)CC[C@]4(C)[C@H]3C[C@H](O)[C@]12C)[C@H]1CC[C@H]2[C@@H]3[C@H](O)C[C@@H]4C[C@H](O)CC[C@]4(C)[C@H]3C[C@H](O)[C@]12C.[Cl-]", "note": "[A-TMA]", "values": [{"measurement": "gene transfer activity compared to controls", "setting": "[4]", "value": "significantly above those levels obtained by controls"}, {"measurement": "gene transfer activity", "setting": "[4]; individual animals, 1 mg/ml in PBS/1% Glycerol (A-TMA) or Buffer D (A-HCl)", "value": "+ +"}]}, {"compound": "Pluronic F68 [reference compound]", "values": [{"measurement": "gene transfer to the bladder epithelium (Table I)", "setting": "[2]", "value": "did not have similar effects"}]}, {"compound": "C[C@H](CCC(=O)N(CCCNC(=O)[C@H](O)[C@@H](O)[C@H](O)[C@H](O)CO)CCCNC(=O)[C@H](O)[C@@H](O)[C@H](O)[C@H](O)CO)[C@H]1CC[C@H]2[C@@H]3[C@H](O)C[C@@H]4C[C@H](O)CC[C@]4(C)[C@H]3C[C@H](O)[C@]12C", "note": "[purified Big CHAP (CALBIOCHEM®)]", "values": [{"measurement": "gene transfer and expression", "setting": "[3]", "value": "only slightly enhanced; also recorded: reduced ability to enhance gene transfer"}]}]}
